{
  "source": "patent US20250345309A1",
  "about": "“IMMUNE HEALTH IMPROVERS” (Amazentis SA, priority 2024, published 2025)",
  "key": {"[1]": {"test_system": "PBMCs", "test": "Mitochondrial analysis of PBMCs (Mitotracker Green, MitotrackerRedCMXROS, PGC-1α, Parkin)", "type": "in vivo, human", "method": "PBMCs were thawed as depicted above and cultured in T cell medium (RPMI (ThermoFisher Scientific) 10% FBS (South America origin), 10 mM Hepes (Sigma), 1× Non-Essential Amino Acid, 1 mM Sodium Pyruvate, 50 μM β-Mercaptoethanol, 100 U/ml penicillin, 100 μg/ml streptomycin and 2 mM Glutamax (ThermoFisher Scientific)) overnight. After washing, cells were reconstituted in T cell medium containing respective staining agent: for labelling of mitochondrial mass, Mitotracker Green (Invitrogen) was used at a concentration of 40 nM for 30 mins at 37° C. Mitochondrial membrane potential was assessed via MitotrackerRedCMXROS. Cells were then stained with a combination of CD3 vFlour 450, PE-Cy7 CD4, APC-Cy7 CD8, CCR7 APC, CD45RA FITC and Ghost Violet510. To assess expression of peroxisome proliferator-activated receptor gamma coactivator 1-alpha (PGC-1α), cells were rested for four hours after thawing, then stained with the panel above for 15 mins at 4° C. After washing in FACS buffer, cells were permeabilized and fixed using the eBioscience™ Foxp3/Transcription Factor Staining Buffer Set, followed by staining with PGC-1α (sc-518025; D-5; Santa Cruz) antibody. To assess the expression of Parkin, cells were first stained with CD4 BV786, CD8 PECF 594, CD3 BUV 395, CD45RA FITC, CD14 eF450 and live/dead 780, followed by permeabilization and fixation with transcription factor buffer set kit (BD Biosciences). For mitochondrial analysis, cells were finally fixed in 1% PFA and analyzed on a Cytek Aurora cytometer. Samples were unmixed using reference controls generated in combination with stained Ultracomp beads (Fisher Scientific, 01-2222-41)."}, "[2]": {"test_system": "DNA methylation", "test": "DNA methylation biological age clocks (TruDiagnostic)", "type": "in vivo, human", "conditions": "d28 vs start of intervention, 1000 mg/day oral; no decrease with placebo", "from_the_text": "Blood taken from the participants at baseline and the last study visit (d28) time points were applied to dried blood cards and processed by TruDiagnostic™. The test uses DNA methylation data analysis to calculate biological ages using the PhenoAge 2nd generation clock and the Hannum 1st generation clock. The Urolithin A intervention group's biological (immune cell-blood based) age was reduced by a median of about 2 years from the start of the intervention, as calculated by the PhenoAge clock (FIG. 11A). […] A decrease in biological age was not observed in the Placebo group."}, "[3]": {"test_system": "monocytes", "test": "Phagocytosis assay (pHrodo E. coli Red BioParticles)", "type": "in vivo, human", "conditions": "ex vivo, d28, 1000 mg/day oral, compared with placebo cohort", "method": "The pHrodo™ E. coli Red BioParticles® Phagocytosis Kit for Flow Cytometry (Invitrogen) was used to assess phagocytotic capacity of monocytes. The particles were inactivated, unopsonized Escherichia coli (K-12 strain) that enables measurement of phagocytic activity based on acidification of particles as they are ingested. Thawed PBMCs were immediately used for analysis. 25 μL of E. coli Red BioParticles® were added to 0.25×10^6 PBMCs in 225 μl PBMC medium. As a negative control, 20 μL of PBS were added to 225 μl of PBMCs. Incubation was performed at 37° C. for 45 min, followed by immediate transfer on ice. Cells were then washed in FACS buffer, centrifuged at 1500 rpm for 5 min, followed by another wash step. Cells were stained for 10 min at 4° C. After washing, cells were reconstituted in PBS and subjected to analysis using a Cytek Aurora fow cytometer. Monocytes were identified as CD3−, CD16+ cells."}, "[4]": {"test_system": "PBMCs", "test": "Spectral flow cytometry immune phenotyping of PBMCs", "type": "in vivo, human", "method": "Spectral flow cytometry to broadly analyse immune composition was performed on PBMCs from 25 UA and 25 placebo individuals from the cohort. Flow cytometry staining was performed in three batches, to minimize batch-related effects.\nPBMC were thawed and allowed to recover for 3 hours in uncoated cell culture dishes. All samples for any particular donor series were thawed together. For the intracellular panel, cells were stained after recovery with the surface panel, then fixed and permeabilized using the ThermoFisher Foxp3 fix/perm system, followed by staining for intracellular markers. For the surface-only panel, cells were treated with Bafilomycin A1 (0.5 μM) for 45 minutes, followed by 45 minutes incubation with 5-dodecanoylaminofluorescein di-β-D-galactopyranoside (C12FDG) before harvest and surface staining. All cells were analyzed on a Cytek Aurora cytometer. FCS files were exported into FlowJo (BD) for further analysis.\nRaw data for all 64 output channels were unmixed using library single-color reference controls for each marker. Spectral compensation for the resulting unmixed data was corrected by manually adjusting a 31×31 matrix of spectral overlaps. Once the data was properly compensated, each individual marker was checked for signal and specificity. The resulting data was then manually gated using a representative sample. The gates are then applied to the other samples in the batch, while spot-checking the gating of the other samples for consistency with the first sample gated."}, "[5]": {"test_system": "TSCM", "conditions": "in vitro (Denk et al. Immunity 2022); cited from earlier work"}, "[6]": {"conditions": "after 28 days, 1000 mg/day oral"}, "[7]": {"conditions": "28 days, 1000 mg/day oral, vs placebo"}, "[8]": {"conditions": "d28, 1000 mg/day oral, between the two groups"}, "[9]": {"conditions": "d28, 1000 mg/day oral, not present after placebo"}},
  "data": [
    {"smiles": "O=c1oc2cc(O)ccc2c2ccc(O)cc12", "note": "[Urolithin A]", "values": [
      {"measurement": "Mitochondrial content in several CD8+ subsets (TN, TEM, TCM, TEFF)", "setting": "[1]; [6]", "result": "Increased"},
      {"measurement": "Mitochondrial content of CD4+ cells", "setting": "[1]; [6]", "result": "no significant change"},
      {"measurement": "Mitochondrial mass: proportion of MTGHi cells in CD8+ cells", "setting": "[1]; after 28 days, 1000 mg/day oral, absent in placebo", "result": "increased"},
      {"measurement": "PGC-1α expression in CD8+ cells", "setting": "[1]; after intervention period (d28), 1000 mg/day oral, no change with placebo", "result": "stronger expression"},
      {"measurement": "Mitochondrial membrane potential (MMP) in CD8+ cells", "setting": "[1]; d28, 1000 mg/day oral", "result": "significantly lower"},
      {"measurement": "PGC-1α in CD4+ cells", "setting": "[1]; d28, 1000 mg/day oral", "result": "no significant induction"},
      {"measurement": "Reduction of MMP in CD4+ cells", "setting": "[1]; d28, 1000 mg/day oral", "result": "absent"},
      {"measurement": "Reduction of MMP in CD8 subsets", "setting": "[1]; d28, 1000 mg/day oral", "result": "retained"},
      {"measurement": "Parkin protein expression", "setting": "[1]; study visits at seven days or 28 days, 1000 mg/day oral", "result": "Change in Parkin protein expression was detected"},
      {"measurement": "Reduction of biological (immune cell-blood based) age, PhenoAge clock, median", "setting": "[2]", "result": "about 2 years"},
      {"measurement": "Monocyte phagocytosis of E. coli particles", "setting": "[3]", "result": "significantly enhanced"},
      {"measurement": "CD8+ TEMRA", "setting": "[4]; 28 days, 1000 mg/day oral", "result": "remained unaffected"},
      {"measurement": "CD8+ central memory cells (TCM)", "setting": "[4]; 28 days, 1000 mg/day oral", "result": "remained unaffected"},
      {"measurement": "CD8+ virtual memory cells (TVM)", "setting": "[4]; 28 days, 1000 mg/day oral", "result": "remained unaffected"},
      {"measurement": "CD8+ TSCM", "setting": "[4]; 28 days, 1000 mg/day oral, UA vs placebo group", "result": "no differences"},
      {"measurement": "Proportion of naïve CD8+ T cells (TN) among total PBMCs", "setting": "[4]; 28 days, 1000 mg/day oral, compared to placebo", "result": "increased"},
      {"measurement": "CD8+ effector memory cells (TEM)", "setting": "[4]; [7]", "result": "concomitantly reduced"},
      {"measurement": "Percentage of CD4+ T cells among total PBMCs", "setting": "[4]; [7]", "result": "no differences"},
      {"measurement": "Percentage of CD8+ T cells among total PBMCs", "setting": "[4]; [7]", "result": "no differences"},
      {"measurement": "Percentage of circulating γδ T cells among total PBMCs", "setting": "[4]; [7]", "result": "no differences"},
      {"measurement": "Percentage of total αβCD3+ T cells among total PBMCs", "setting": "[4]; [7]", "result": "no differences"},
      {"measurement": "Nonclassical monocytes (CD14loCD16hi) among total PBMCs", "setting": "[4]; after 28 days, 1000 mg/day oral, compared to placebo", "result": "increased"},
      {"measurement": "Ki67 in CD8+ cells", "setting": "[4]; after last study visit (d28), 1000 mg/day oral, not present after placebo", "result": "more"},
      {"measurement": "CD4+ TCM population", "setting": "[4]; d28, 1000 mg/day oral", "result": "no difference"},
      {"measurement": "CD4+ TEM population", "setting": "[4]; d28, 1000 mg/day oral", "result": "no difference"},
      {"measurement": "CD4+ TN population", "setting": "[4]; d28, 1000 mg/day oral", "result": "no difference"},
      {"measurement": "CD4+ TSCM population", "setting": "[4]; d28, 1000 mg/day oral", "result": "no difference"},
      {"measurement": "CD4+ Th1 cells (T-bet)", "setting": "[4]; d28, 1000 mg/day oral", "result": "no changes"},
      {"measurement": "CD56dimCD16bright NK cells among total PBMCs", "setting": "[4]; d28, 1000 mg/day oral", "result": "markedly expanded"},
      {"measurement": "Circulating DCs", "setting": "[4]; d28, 1000 mg/day oral", "result": "did not change"},
      {"measurement": "Circulating ILCs", "setting": "[4]; d28, 1000 mg/day oral", "result": "did not change"},
      {"measurement": "Circulating T follicular helper cells (Tfh1, Bcl-6)", "setting": "[4]; d28, 1000 mg/day oral", "result": "no changes"},
      {"measurement": "FoxP3+ Treg", "setting": "[4]; d28, 1000 mg/day oral", "result": "no changes"},
      {"measurement": "Gata3+ Th2 cells", "setting": "[4]; d28, 1000 mg/day oral", "result": "no changes"},
      {"measurement": "NK cell inhibitory receptor KIR expression", "setting": "[4]; d28, 1000 mg/day oral", "result": "No change"},
      {"measurement": "NK cell inhibitory receptor KLRG1 expression", "setting": "[4]; d28, 1000 mg/day oral", "result": "No change"},
      {"measurement": "NK cell inhibitory receptor NKG2A expression", "setting": "[4]; d28, 1000 mg/day oral", "result": "No change"},
      {"measurement": "PD-1 expression in CD8+ cells", "setting": "[4]; d28, 1000 mg/day oral", "result": "unaltered"},
      {"measurement": "Senescence marker p16", "setting": "[4]; d28, 1000 mg/day oral", "result": "no difference"},
      {"measurement": "Senescence marker p21", "setting": "[4]; d28, 1000 mg/day oral", "result": "no difference"},
      {"measurement": "Classical monocytes", "setting": "[4]; [8]", "result": "did not undergo change"},
      {"measurement": "Intermediate monocytes (CD14hiCD16hi)", "setting": "[4]; [8]", "result": "did not undergo change"},
      {"measurement": "Percentage of plasma cells among PBMCs", "setting": "[4]; [8]", "result": "no changes"},
      {"measurement": "Percentage of plasmablasts among PBMCs", "setting": "[4]; [8]", "result": "no changes"},
      {"measurement": "Percentage of total B cells among PBMCs", "setting": "[4]; [8]", "result": "no changes"},
      {"measurement": "Specific B cell subsets", "setting": "[4]; [8]", "result": "no changes"},
      {"measurement": "Senescence-associated β-galactosidase (SA-β-GAL) in circulating CD8+ cells", "setting": "[4]; [9]", "result": "increased"},
      {"measurement": "TOX expression in CD8+ cells", "setting": "[4]; [9]", "result": "small reduction"},
      {"measurement": "HLA-DR on classical monocytes", "setting": "[4]; final study visit (d28), 1000 mg/day oral", "result": "less"},
      {"measurement": "TSCM formation", "setting": "[5]", "result": "induces TSCM formation"}
    ]}
  ]
}
